In the pKa sets of Baltruschat and Czodrowski (2020) one finds pKa data, which are given here for 133 compounds.

Structures are written as SMILES. Where a SMILES comes first, the peptide text is derived from it. [ ]: non-standard residue; d: D form. pGlu = O=C1CC[C@@H](C(=O)O)N1

One may read the pKa as the negative logarithm of the acid dissociation constant.

On to `COc1nc(N)c2ncn([C@H]3O[C@@H](CO)[C@H](O)[C@@H]3O)c2n1`, for which the pKa (basic group) was 3.2. Still for that read-out and setting: in the case of `C[C@@H](O)[C@H](CCC=O)O[C@H]1O[C@H](C)[C@@H](N(C)C)[C@H](O)[C@H]1O` it was 7; in that of `CNc1cc[n+](C)c([O-])n1`, 4.47; in that of `NC(=S)C1([NH3+])CCCCC1`, -8.08.

The compound `O=C(c1ccccc1)N1CCNCC1` yielded a pKa (basic group) of 7.79. The same measure, in the same setting: in the case of `CCCCCCCP(=O)(CCCCCCC)CCCCCCC` it was 4.65. The same measure, in the same setting: the result for `CNCCN` reads 10.4. In turn, `CCN(CC)C(=S)NC(=O)c1ccc(F)cc1` returned a pKa (acidic group) of 8.13. Take `CCNCCNCC`: the pKa (basic group) amounted to 10.5.

As for `Nc1ccc2[nH+]cccc2c1`, the pKa (basic group) was 1.63. Take `COc1ccc2[nH]c3c(C)nccc3c2c1`: the pKa by setting is: (acidic group) 14.6; (basic group) 7.09. As for `CC(CCN(C)C)NN` (centres undefined), the pKa (basic group) is 9.23.

`CN1[C@H]2CC[C@@H]1[C@H](C(=O)[O-])[C@H](O)C2` came in with a pKa (basic group) of 11.1. As for `COc1cccc(CN(C)C)c1O`, the pKa (basic group) stood at 8.42. On the same count and under the same terms, in the case of `Nc1ccc(C[NH3+])cc1` it was 4.16. `Cc1c(Cl)cccc1C(=O)O`: the pKa (acidic group) was 3.43. Compound `CC(C)([Se-])CN` gave a pKa (basic group) of 10.9. On the same count and under the same terms, in the case of `CN(C)C[C@H]1[C@@H]2CC[C@@](C)([C@H]1N)C2(C)C` it was 9.84. Under “acidic group”, `O=c1c2[nH]cnc2ncn1[O-]` yielded a pKa of 10.1. The compound `Nc1c2ccccc2[nH+]c2c(O)cccc12` came in with a pKa (acidic group) of 7.05. Consider `Cc1ccc2nccc(NCCC[NH+](C)C)c2c1[N+](=O)[O-]`, for which the pKa (basic group) amounted to 6.15. On to `O=C1O[C@@H]([C@H](O)CO)C([O-])=C1O`, for which the pKa (acidic group) turned out to be 11.6. Take `O=C1NCCN1`: for the setting “basic group”, the pKa was found to be 3.09. Same read-out and setting: in the case of `Cc1cc(=O)n(-c2ccccc2)n1C` it was 1.45.

`Cc1ccccc1OCC(=O)O` gave a pKa (acidic group) of 3.17. Regarding `O=C([O-])CN(CC(=O)[O-])Cc1ccccc1[O-]`, the pKa (basic group) came to 11.8.

Under “acidic group”, `COc1ccc(C(=S)Nc2ccc(Cl)c(Cl)c2)cc1` returned a pKa of 10.1. Take `Clc1ccc(-c2ncc(-c3ccccc3)o2)cc1`: the pKa (basic group) turned out to be 0.41.

With `O=C(OCc1ccccc1)c1ccc(O)cc1`, the pKa (acidic group) was 8.31. As to `Cc1ccc(-c2nnc(-c3ccccc3)o2)cc1`, the pKa (basic group) came to 1.81. For the compound `Cc1cc(C)c2cccc(O)c2n1`, the pKa (acidic group) came out at 10.6 and the pKa (basic group) came to 6.2. For the setting “basic group”, `CCCCCn1ccnc1` had a pKa of 7.12. `c1ccc2c(c1)cnc1ccccc12`: the pKa (basic group) was 4.58. Still for that read-out and setting: the result for `C[n+]1cnccc1[O-]` reads 1.84. The compound `COc1cccc(NCCS)c1` yielded a pKa (basic group) of 5.18. In the case of `Nc1cccc(-c2ccccc2)c1`, where the note is “basic group”, the pKa is 4.28. For the setting “acidic group”, `[NH3+]CCC(=O)N[C@@H](Cc1c[nH+]c[nH]1)C(=O)O` gave a pKa of 2.63. Where the note is “basic group”, `CCN(CC)CCNc1cc(C)nc(Nc2ccc(Cl)cc2)n1` showed a pKa of 9.05. Take `CCCC[Se](=O)O`: for the setting “acidic group”, the pKa was 5.29.

In the case of `O=C(Oc1ccc([N+](=O)[O-])cc1[N+](=O)[O-])c1ccc(O)cc1`, the pKa (acidic group) came to 7.68. Turning to `CC(=O)NN=C1CCN(C)CC1`, the pKa (basic group) was 7.45.

Under “basic group”, `N[C@H]1CCC[C@@H]1O` had a pKa of 9.28. On the same count and under the same terms, the result for `Cc1cc(-c2ccccc2)n[n+](C)c1NCCN1CCOCC1` reads 5.12. The compound `C=C[C@]1(O)C[NH+]2CC[C@H]1C[C@H]2[C@H](O)c1cc(O)[nH+]c2ccccc12` had a pKa (acidic group) of 2.76.

In the case of `O=C(O)[C@@H]1C[C@@H](O)C[NH2+]1`, the pKa (acidic group) was determined as 1.92. Regarding `Cc1ccc(C(=O)c2ccccc2C(=O)O)cc1`, where the note is “acidic group”, the pKa came out at 3.64. Still for that read-out and setting: in the case of `C[NH+](C)CCCCCCCCCNC(=O)/C=N/O` it was 8.99. `Cc1cnc2ccc(C)c([N+](=O)[O-])c2c1NCCC[NH+](C)C` displayed a pKa (basic group) of 6.07. For the setting “acidic group”, `O=C([O-])[C@H]1O[C@@H]1C(=O)O` came in with a pKa of 3.25. For `COc1ccccc1C(=N)c1ccccc1`, the pKa (basic group) turned out to be 7.29. Same read-out and setting: the result for `CCC/C(N)=C/C(=O)c1ccccc1` reads -1.12. Turning to `Cc1cc(-c2cc(C)n(C)n2)nn1C`, where the note is “basic group”, the pKa stood at 2.22.

As for `CC[NH+](CC)CCNc1nc(C)nc(Nc2ccc(Cl)cc2)n1`, the pKa (basic group) was 4.02. In turn, `Cc1cc(C)n(Cc2cc(C)n(C)n2)n1` gave a pKa (basic group) of 3.39. Take `Cc1c(I)cccc1C(=O)O`: the pKa (acidic group) was found to be 3.26. For the compound `O=C([O-])/C=C\c1c[nH]cn1`, the pKa (basic group) was 6.7. On the same count and under the same terms, in the case of `CNCC(=O)Nc1c(C)cccc1C` it was 7.99; in that of `CCc1ccc(N)cc1`, 5.16.

The compound `CN1CCCC1c1cccnc1` (centres undefined) showed a pKa (basic group) of 8.06.

For `CC(=O)NCCS`, the pKa (acidic group) was 9.5. Take `CCN(C)N(CC)CC`: where the note is “basic group”, the pKa is 7.3. Compound `Oc1c2ccccc2[nH+]c2ccccc12` came in with a pKa (acidic group) of 0.32. As for `NC(=O)c1ccncc1`, the pKa amounted to 10.5 (acidic group) and 3.57 (basic group). In the same order, the values of `COc1ccc2[nH]c3c(c2c1)CCN=C3C` are 14.5 and 9.21. With `NCCC[Se-]`, the pKa (basic group) came to 11.3. `O=C(O)[C@@H]1O[C@H](Oc2ccc(Br)cc2)[C@@H](O)[C@H](O)[C@H]1O` returned a pKa (acidic group) of 3.02. For `CN(C)CCC#N`, the pKa (basic group) was 7.01. On to `O=C([O-])c1ccc(O)cc1`, for which the pKa (acidic group) worked out at 9.35.

As to `C/N=c1/sc2c(n1C)CCCC2`, where the note is “basic group”, the pKa worked out at 10. On the same count and under the same terms, in the case of `CC(C)c1cccnc1` it was 5.72. Consider `CC1=C(C)/C(=C(\C)C(=O)O)CC1=O`, for which, under “acidic group”, the pKa worked out at 3.1. `CN(C)Cc1cc(C(=O)c2ccccc2)ccc1[O-]` displayed a pKa (basic group) of 10.2. With `O=[N+]([O-])c1ccc(C2NCCS2)cc1` (centres undefined), where the note is “basic group”, the pKa was 4.55. Same read-out and setting: the result for `Cc1cc(N)cc(C)c1[N+](=O)[O-]` reads 2.56; that for `Cc1ccc(N=C2C=CC(=N)C=C2)c(N)c1`, 4.2; that for `Cc1c(Br)cc(N)cc1Br`, 2.87. In turn, `O=C([O-])C1CSCN1` (centres undefined) gave a pKa (basic group) of 6.23.

Regarding `Ic1cccc(C2NCCS2)c1` (centres undefined), the pKa (basic group) worked out at 4.93.

`Cc1noc(NS(=O)(=O)c2ccc(N)cc2)c1C` returned a pKa (acidic group) of 4.16.

In turn, `CC(=O)c1ccccc1O` showed a pKa (acidic group) of 10.4. In the case of `NC(=O)Nc1[nH]cnc1C(=O)[O-]`, the pKa by setting is: (acidic group) 12.2; (basic group) 4.9. Consider `C[NH+](C)Cc1cc(C(C)(C)C)cc(C[NH+](C)C)c1O`, for which the pKa (acidic group) stood at 6.3. For the compound `O=P(C1CCCCC1)(C1CCCCC1)C1CCCCC1`, the pKa by setting is: (acidic group) 13.7; (basic group) 5.04. On to `CSc1cc2ccccc2cn1`, for which the pKa (basic group) worked out at 3.41. Same read-out and setting: in the case of `N/C(CCNc1ccccc1)=N\O` it was 5.35. `N#CC(C#N)=C(c1ccccc1)C(C#N)C#N`: the pKa (acidic group) was found to be 2.3. In turn, `Oc1c(Cc2ccccc2)c(-c2ccccc2)nn1-c1ccccc1` registered a pKa (acidic group) of 7.6. On the same count and under the same terms, the result for `O=C(O)c1ccc(Cl)c([N+](=O)[O-])c1` reads 3.33.

In turn, `C[Si](C)(CCCCl)CCCC(=O)O` returned a pKa (acidic group) of 4.98. Same read-out and setting: in the case of `Cc1ccccc1S(=O)O` it was 1.47.

As to `CCCSC(=O)CCCc1c[nH]cn1`, the pKa (basic group) is 7.55. The same measure, in the same setting: in the case of `COc1ccc(C(=N)c2ccccc2)c(OC)c1` it was 8.3; in that of `NNC(=O)c1ccc(N)cc1`, 3.56.

Under “basic group”, `CCSC(=O)c1ccc(Cl)cc1` returned a pKa of -5.02. The same measure, in the same setting: in the case of `CC1CNCc2ccccc2OCCOc2ccccc2CN1` (centres undefined) it was 9.41. Take `N#CCC(=O)NN`: the pKa runs as follows: (acidic group) 11.1; (basic group) 2.34. Under “acidic group”, `C[n+]1cccc(S)c1` displayed a pKa of 2.27. For `O=C([O-])C1(C(=O)O)CC1`, under “acidic group”, the pKa turned out to be 7.31.

`CC(C)(C)NCCO` registered a pKa (basic group) of 10.1. Turning to `Cn1nc([N+](=O)[O-])nc1NN=O`, the pKa (acidic group) is 3.22. `Oc1ccccc1O` gave a pKa (acidic group) of 9.33.

Take `Cc1ccc(Cl)cc1C(=O)O`: where the note is “acidic group”, the pKa came to 3.63. With `O=C1CCC(=O)N1O`, the pKa (acidic group) came out at 6.04. Same read-out and setting: the result for `Cc1nc(-c2ccccc2)oc1O` reads 8.94. `CCN(CC)CC(=O)[O-]`: the pKa (basic group) came to 10.5. For `C[Si](C)(C)c1ccc(C(=O)O)cc1`, the pKa (acidic group) came out at 4.27. In the case of `Cc1ccncc1`, under “basic group”, the pKa was 6.15. Still for that read-out and setting: in the case of `Cc1cccc(N)n1` it was 7.4. Take `c1ccc(Nc2nnn[nH]2)cc1`: the pKa (acidic group) is 6.3. Same read-out and setting: in the case of `C[NH+](C)CCc1ccc(O)cc1` it was 9.46. In turn, `Cc1cc2nccc(NCCC[NH+](C)C)c2cc1[N+](=O)[O-]` gave a pKa (basic group) of 7.38. Still for that read-out and setting: in the case of `C1CCN(CC[NH+]2CCCC2)C1` it was 6.3. On to `Oc1ccc(/C=N/c2ncc3nc[nH]c3n2)cc1`, for which the pKa reads like this: (acidic group) 8.62; (basic group) 3.27. In the case of `O=P(O)(C1CCCCC1)C1CCCCC1`, the pKa (acidic group) was found to be 3.47. Still for that read-out and setting: in the case of `CC(C)[C@H]1C[NH2+][C@H](C(=O)[O-])[C@H]1CC(=O)O` it was 4.23.

Consider `Cc1n[nH]c(C)c1[N+](=O)[O-]`, for which the pKa runs as follows: (acidic group) 10.3; (basic group) -0.22. With `C[N+](=O)[O-]`, the pKa (acidic group) came to 10.5. Consider `O=C(CN1CCOCC1)NCc1ccccc1`, for which, under “basic group”, the pKa stood at 4.98. `CC(C)(C)Cc1ccc(O)cc1`: under “acidic group”, the pKa amounted to 10.7. Still for that read-out and setting: the result for `Cc1ccc2nc3ccc(O)cc3nc2c1` reads 7.2. Turning to `CNc1nc(SC)nc2[nH]ncc12`, the pKa runs as follows: (acidic group) 11.4; (basic group) 3.61. In the same order, the values of `O=S(=O)(Nc1ncccn1)c1ccccc1` are 5.91 and 0.15.

`CC(C)(C)CNc1ccccc1` gave a pKa (basic group) of 4.17. `Oc1ccc2ncsc2c1` registered a pKa (acidic group) of 9.21.

On to `ONc1ccc(Cl)cc1`, for which the pKa (basic group) stood at 2.58. Still for that read-out and setting: in the case of `COc1cnccc1N` it was 9.03.

In turn, `C[C@H](NC(=O)[C@@H]1CCC(=O)N1)C(=O)O` ([pGlu]-Ala-OH) came in with a pKa (acidic group) of 3.6.

The compound `C1CNCCSCCNC1` showed a pKa (basic group) of 12. Take `CN1CCCCCCN(C)CCCCCC1`: the pKa (basic group) amounted to 9.24. Turning to `[NH3+]C(c1cccc(O)c1O)P(=O)([O-])[O-]` (centres undefined), the pKa (acidic group) stood at 9.44. In turn, `CC[Si](C)(C)CN` returned a pKa (basic group) of 10.7. `CC(C)P(=O)(O)C(C)C` returned a pKa (acidic group) of 3.56.

As to `[O-]c1c(Cl)cc(Cl)cc1CN1CCOCC1`, the pKa (basic group) worked out at 8.85.
